Values quoted from earlier work in patent US20100113580A1, “COMBINATION THERAPIES FOR THE TREATMENT OF OBESITY” (priority 2008, published 2010).

Settings: literature studies of single weight loss drugs

SMILES | weight loss of body weight for drug compared with placebo
CC(C)CC(N(C)C)C1(c2ccc(Cl)cc2)CCC1 (stereo not drawn) [sibutramine] | about 5%
CCCCCCCCCCC[C@@H](C[C@@H]1OC(=O)[C@H]1CCCCCC)OC(=O)[C@H](CC(C)C)NC=O [orlistat] | about 5%
CCN[C@@H](C)Cc1cccc(C(F)(F)F)c1 [dexfenfluramine] | about 5%
